Experiments:
[1] = human patients with scleroderma; cited from earlier work
ovarian cancer = ovarian cancer genetically engineered mouse models; cited from earlier work
[2] = Stability in topical formulation (purity profile at room temperature); type: physicochemical; conditions: for % Purity of Compound 1 in topical formulation: 1% Compound 1
[3] = Diffusion through human skin, Franz diffusion cell; type: in vitro ADME; conditions: topical formulation containing 2% Compound 1
Source text: Skin permeability is essential when considering topical application to treat skin conditions. One way to evaluate skin permeability is to use a Franz diffusion cell system with human skin as a membrane (Particle Sciences; Technical Brief 2009; Vol. 10). The donor compound (Compound 1), topically formulated, is applied on the top chamber and diffusion through the skin is monitored at relevant time points by sampling the solution in the receptor chamber via the sampling port. The concentration of Compound 1 was determined by quantitative HPLC analysis.

[4] = test system: Salmonella typhimurium TA100; assay: Bacterial reverse mutation test, preliminary toxicity test (direct plate incorporation)
Description: In the preliminary toxicity test, for selection of test doses for the mutation assay, Salmonella typhimurium, TA100 was exposed to the test item at 39.0625, 78.125, 156.25, 312.5, 625, 1250, 2500 and 5000 μg/plate along with a DMSO control using direct plate incorporation.

[5] = Solubility and stability of test item in DMSO vehicle; type: physicochemical; conditions: for Stability in vehicle DMSO: at 20 μg/mL and 50000 μg/mL
Description: The test item was soluble in DMSO at 50 mg/mL and was used as the vehicle of choice in the mutation assay.

Human DAO = target: T1, Human DAO (Homo sapiens, UniProt P19801); assay: Inhibition of human recombinant DAO; type: biochemical; conditions: 2 hours incubation; substrate putrescine 200 μM
T1 construct: Prof; Boehm, Department of Clinical Pharmacology, Medical University, Vienna (gift)
T1 sequence (P19801 20-751): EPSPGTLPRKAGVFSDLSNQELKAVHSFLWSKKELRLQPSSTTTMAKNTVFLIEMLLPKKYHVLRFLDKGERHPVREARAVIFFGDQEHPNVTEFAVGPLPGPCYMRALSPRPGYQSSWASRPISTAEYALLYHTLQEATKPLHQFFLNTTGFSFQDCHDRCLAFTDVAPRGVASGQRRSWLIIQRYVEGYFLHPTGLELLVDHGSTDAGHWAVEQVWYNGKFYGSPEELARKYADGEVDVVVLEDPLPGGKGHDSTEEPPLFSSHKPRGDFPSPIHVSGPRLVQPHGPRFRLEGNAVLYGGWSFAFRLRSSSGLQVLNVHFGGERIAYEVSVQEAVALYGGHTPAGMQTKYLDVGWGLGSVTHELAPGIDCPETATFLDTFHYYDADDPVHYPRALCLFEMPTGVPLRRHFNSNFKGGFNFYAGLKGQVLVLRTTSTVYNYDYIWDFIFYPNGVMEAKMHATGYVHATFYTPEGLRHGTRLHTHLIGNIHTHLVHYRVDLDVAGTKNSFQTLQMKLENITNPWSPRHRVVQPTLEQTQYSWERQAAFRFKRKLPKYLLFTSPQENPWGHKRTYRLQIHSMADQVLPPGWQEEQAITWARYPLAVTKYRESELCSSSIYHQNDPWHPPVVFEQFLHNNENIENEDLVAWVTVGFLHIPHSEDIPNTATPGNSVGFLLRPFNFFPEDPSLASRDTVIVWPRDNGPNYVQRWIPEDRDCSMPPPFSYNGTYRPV

Human MAO-B = target: T2, Human MAO-B (Homo sapiens, UniProt P27338); assay: Inhibition of human recombinant MAO-B; type: biochemical; conditions: substrate benzylamine 100 μM
T2 construct: purchased Sigma Aldrich
T2 sequence (P27338 whole entry): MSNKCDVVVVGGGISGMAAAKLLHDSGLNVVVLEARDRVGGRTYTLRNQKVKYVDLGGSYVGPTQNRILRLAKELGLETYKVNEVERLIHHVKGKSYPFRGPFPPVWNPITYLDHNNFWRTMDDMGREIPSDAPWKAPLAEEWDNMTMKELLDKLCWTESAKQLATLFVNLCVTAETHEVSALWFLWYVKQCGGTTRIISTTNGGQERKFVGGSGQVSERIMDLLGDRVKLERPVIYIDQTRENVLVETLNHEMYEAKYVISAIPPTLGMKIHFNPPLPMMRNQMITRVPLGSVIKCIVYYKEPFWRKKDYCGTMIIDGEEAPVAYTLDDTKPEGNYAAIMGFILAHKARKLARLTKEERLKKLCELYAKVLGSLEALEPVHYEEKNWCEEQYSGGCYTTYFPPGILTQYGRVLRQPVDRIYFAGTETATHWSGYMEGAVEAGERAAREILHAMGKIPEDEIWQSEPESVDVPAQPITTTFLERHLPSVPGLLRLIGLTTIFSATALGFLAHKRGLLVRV

SMILES	Tolerability [1]	Survival and lung metastasis (ovarian cancer)	% Purity of Compound 1 in topical formulation ([2]; room temperature, t = 3 months, 129600 min)	% Purity of Compound 1 in topical formulation ([2]; room temperature, t = 6 months, 259200 min)	% Purity of Compound 1 in topical formulation ([2]; room temperature, t = 9 months, 388800 min)	% Purity of Compound 1 in topical formulation ([2]; t = 0)	Compound peak percentage in topical formulation ([2]; topical formulation 1, at all tested time points)	Level in the receptor chamber ([3]; after 24 hours (FIG. 2))	Permeability and diffusion through human skin ([3]; time dependent (FIG. 2))	Toxicity to the tester strain (bacterial background lawn, revertant colony counts) ([4]; 39.0625-5000 μg/plate, presence and absence of metabolic activation)	Precipitation on the basal agar plates ([4]; up to 5000 μg/plate, presence or absence of metabolic activation)	solubility ([5]; dmso, organic solvent or mixture)	Stability in vehicle DMSO ([5]; refrigerated temperature)	Stability in vehicle DMSO ([5]; room temperature)	IC50 (Human DAO)	IC50 (Human MAO-B)
N#CCCN [BAPN, β-aminopropionitrile, reference compound]	poorly tolerated	significantly increased survival and decreased lung metastasis														
NC/C(=C\F)CS(=O)(=O)c1ccccc1 [Compound 1, (E)-3-fluoro-2-((phenylsulfonyl)methyl)prop-2-en-1-amine]			99.81%	99.82%	99.79%	99.83%	above 99.5%	high levels	good permeability and diffusion	did not exhibit toxicity to the tester strain	did not precipitate on the basal agar plates	≥ 50 mg/mL	≥ 4 days	≥ 0.25 days	> 100 µM	> 30 µM

— patent US20260364030A1, “NOVEL SELECTIVE INHIBITORS OF LYSYL OXIDASES” (Syntara Limited, priority 2022, published 2026)
